Marks after values point to notes of the source that are not given here.
Key:
[1] = system: potatoes grown in plots infested with Globodera pallida; assay: Field trial 2013: potato yield with isolated bioactives in plots infested with Globodera pallida; assay type: in vivo, Solanum tuberosum; conditions: 2013, average yield per drill (2.59 m^2)
Source text: Differences in efficacy achieved with Composition 1 and Composition 2 in field trials between 2008-2012 pointed to a differential effect of bioactive levels within the two compositions (Example 1). Laboratory trials on grass species grown in the presence of Meloidogyne minor identified fucan (fucoidan) as one of the bioactives responsible for enhancing growth (Example 2). Despite lower levels of fucoidan, Composition 1 also achieved equivalent increases in root growth in the same trial as compared with the purified fucoidan. […] A field trial was undertaken in 2013 to further determine which bioactives or combinations of bioactives are responsible for conferring enhancements in total and marketable yield in nematode infested growth media. As in previous trials, the forms of glucan and fucan used were laminarin and fucoidan respectively.
Bioactives were isolated and stock solutions prepared to contain glucan alone, mannitol alone, glucan+mannitol, fucan+mannitol and glucan+fucan. The efficacy of the bioactive fractions were assessed in plots known to be infested with Globodera pallida. Treatments were fully randomized with plots of approximately 16 m^2 in area and 6 drills wide. Twelve tubers were planted per drill. One metre spacing was placed between blocks with two drills fallow between treatments. The dimensions of the drills were 0.7 meters wide and 3.7 meters in length. The cultivar Navan, (Solanum tuberosum L. ev. Navan) was planted and compositions applied by foliar spray at 50% post-emergence and at approximately seven day intervals thereafter. Foliar spray ceased once senescence was noticed. For each of the 5 treatments, a total of 621 g of bioactives was applied per Ha. A nematicidal treatment, Vydate, was applied at full rate as a separate treatment. Standard compound fertilizers and fungicides were applied at recommended rates and intervals. The crop was harvested in November. Total harvest weight and marketable yield (>35 mm category) was measured, with comparisons between bioactive treatments and nematicide made by means of One-Way ANOVA.

Perennial ryegrass = assay: Pre-soaking seeds: early root growth; assay type: in vivo; conditions: seeds pre-soaked 16 hours, 7 day period
Method: (§1) The effects of Composition 1 and fucoidan on Creeping bentgrass and Perennial ryegrass root growth were examined in the laboratory setting in the presence or absence of plant parasitic nematodes in 2010. Seeds were pre-soaked in test materials for 16 hours each and left to germinate on wet USGA sand at 16° C. Roots were analysed using WinRHIZO image analysis system, following a 7 day period to assess mean root length following applications (n=10 seedlings per treatment). Experiments were also undertaken to assess the efficacy of Composition 1 and fucoidan in enhancing root length in the presence or absence of plant pathogenic nematodes. Seedlings (×7 replication) were established in sand columns containing USGA specification sand and sprayed on a weekly basis with either Composition 1 or fucoidan. […] Fucoidan was applied at a rate equivalent to 600 g/Ha. Root knot nematodes of the species Meloidogyne minor were inoculated around the roots in week 1, as second stage juveniles. Roots were analysed using WinRHIZO image analysis system following a 25 days period.

Creeping bentgrass = assay: Pre-soaking seeds: early root growth; assay type: in vivo; conditions: seeds pre-soaked 16 hours, 7 day period, n = 10
Method: as §1

[2] = system: Perennial ryegrass, with or without Meloidogyne minor; assay: Seedling root length in sand columns with or without Meloidogyne minor; assay type: in vivo; conditions: weekly spray, 25 days, n = 7
Method: as §1

[3] = system: Creeping bentgrass, with or without Meloidogyne minor; assay: as above; assay type: in vivo; conditions: weekly spray, 25 days, n = 7
Method: as §1

[4] = inoculation with Meloidogyne minor
[5] = no inoculation with Meloidogyne minor

With `OC[C@@H](O)[C@@H](O)[C@H](O)[C@H](O)CO` [Mannitol-alone, mannitol] the “Total Weight (g)” value [1] was 9652** g, the “Marketable weight (g)” value ([1]; >35 mm) was 9324* g and the “Marketable weight” value ([1]; >35 mm, listed as mannitol-alone) was 9324 g. The “Total Weight” value ([1]; listed as mannitol-alone) was 9652 g.

fucoidan was tested, and the “Mean Root length (mm)” value (Perennial ryegrass; n = 10) was 48.9 ^b mm, the “Mean Root length (mm)” value (Perennial ryegrass; n = 10, listed as fucoidan) was 48.9 mm and the “Mean Root length (mm)” value (Creeping bentgrass) was 39.1 ^a mm. For the same molecule, the “mean root length (mm), +Mm” value [2, 4] was 102.2^b mm, the “mean root length (mm), −Mm” value [2, 5] was 129.2^c mm and the “mean root length (mm), +Mm” value [3, 4] was 20.2^b mm. The “mean root length (mm), −Mm” value [3, 5] was 27.1^b mm.

With laminarin [Glucan-alone] the “Total Weight” value [1] was 10524 g and the “Marketable weight” value ([1]; >35 mm) was 10218 g.
